1 compound from patent publication US8946217B2, “Pharmaceutical compounds” (F. Hoffman-La Roche AG, priority 2005, dated 2015) can be followed below.

The test system of this data set is Caco-2 cells. Nature of the data set: Caco-2 permeability. Format: in vitro ADME. To be noted: bidirectional Caco-2 assay. On the procedure:
Caco-2 cells were seeded onto Millipore Multiscreen plates at 1×10^5 cells/cm^2, and were cultured for 20 days. Assessment of compound permeability was subsequently conducted. The compounds were applied to the apical surface (A) of cell monolayers and compound permeation into the basolateral (B) compartment was measured. This was performed in the reverse direction (B-A) to investigate active transport. A permeability coefficient value, Papp, for each compound, a measure of the rate of permeation of the compound across the membrane, was calculated. Compounds were grouped into low (Papp</=[…]) or high (Papp>/=[…]) absorption potential based on comparison with control compounds with established human absorption.
For assessment of a compound's ability to undergo active efflux, the ratio of basolateral (B) to apical (A) transport compared with A to B was determined. Values of B-A/A-B>/=1.0 indicated the occurrence of active cellular efflux. All of the compounds tested through the Caco-2 permeability screen had Papp values >/=[…].
(In general: Passage across Caco-2 layers is used to estimate intestinal permeability.)

Turning to `CN1CCN(Cc2cc3nc(-c4cccc(O)c4)nc(N4CCOCC4)c3s2)CC1` [PI540], the B-A/A-B asymmetry index result is “less than 1.0”.
